Measurements taken from US11083725B2 (priority 2014, dated 2021).

System: NHBE cells
Test: Biolog metabolic array: substrate use by NHBE cells with or without CA09 infection
Type: cell-based, human
Conditions: for Substrate use, 590 nm absorbance normalized to zero hour, 1 hr: Biolog PMM2, 1 hr; for Substrate use, 590 nm absorbance normalized to zero hour, 5 hr: Biolog PMM2, 5 hr; for Substrate use, 590 nm absorbance normalized to zero hour, 7 hr: Biolog PMM2, 7 hr
[1] = Control (uninfected) NHBE cells
[2] = Virus (CA09, MOI 1) infected NHBE cells
[3] = Virus (CA09-infected, MOI 1) NHBE cells
[4] = Virus: CA09-infected NHBE cells, MOI 1, Biolog PMM2
[5] = Virus (CA09-infected NHBE cells, MOI 1)

OCc1ccccc1O[C@@H]1O[C@H](CO)[C@@H](O)[C@H](O)[C@H]1O [Salicin]
590 nm absorbance normalized to zero hour (substrate use), 1 hr [1]: 1.17 | 590 nm absorbance normalized to zero hour (substrate use), 2 hr [1]: 0.93 | 590 nm absorbance normalized to zero hour (substrate use), 3 hr [1]: 0.96 | 590 nm absorbance normalized to zero hour (substrate use), 4 hr [1]: 0.83 | 590 nm absorbance normalized to zero hour (substrate use), 6 hr [1]: 0.43 | 590 nm absorbance normalized to zero hour (substrate use), 8 hr [1]: 0.67 | 590 nm absorbance normalized to zero hour (substrate use), 9 hr [1]: 0.66 | 590 nm absorbance normalized to zero hour (substrate use), 10 hr [1]: 0.62 | 590 nm absorbance normalized to zero hour (substrate use), 11 hr [1]: 0.62 | Substrate use, 590 nm absorbance normalized to zero hour, 1 hr [1]: 1.17 | Substrate use, 590 nm absorbance normalized to zero hour, 5 hr [1]: 0.78 | Substrate use, 590 nm absorbance normalized to zero hour, 7 hr [1]: 0.69 | Substrate use, 590 nm absorbance normalized to zero hour, 1 hr [2]: 0.77 | Substrate use, 590 nm absorbance normalized to zero hour, 5 hr [2]: 1.64 | Substrate use, 590 nm absorbance normalized to zero hour, 7 hr [2]: 1.87 | 590 nm absorbance normalized to zero hour (substrate use), 1 hr [3]: 0.77 | 590 nm absorbance normalized to zero hour (substrate use), 2 hr [3]: 1.06 | 590 nm absorbance normalized to zero hour (substrate use), 3 hr [3]: 1.26 | 590 nm absorbance normalized to zero hour (substrate use), 4 hr [3]: 1.36 | 590 nm absorbance normalized to zero hour (substrate use), 6 hr [3]: 1.76 | 590 nm absorbance normalized to zero hour (substrate use), 8 hr [3]: 2.01 | 590 nm absorbance normalized to zero hour (substrate use), 9 hr [3]: 2.26 | 590 nm absorbance normalized to zero hour (substrate use), 10 hr [3]: 2.38 | 590 nm absorbance normalized to zero hour (substrate use), 11 hr [3]: 2.62

CC(=O)CC(=O)O [Acetoacetic Acid]
590 nm absorbance normalized to zero hour (substrate use), 1 hr [1]: 1.24 | 590 nm absorbance normalized to zero hour (substrate use), 2 hr [1]: 1.37 | 590 nm absorbance normalized to zero hour (substrate use), 3 hr [1]: 2.22 | 590 nm absorbance normalized to zero hour (substrate use), 4 hr [1]: 2.13 | 590 nm absorbance normalized to zero hour (substrate use), 6 hr [1]: 0.39 | 590 nm absorbance normalized to zero hour (substrate use), 8 hr [1]: 1.52 | 590 nm absorbance normalized to zero hour (substrate use), 9 hr [1]: 1.66 | 590 nm absorbance normalized to zero hour (substrate use), 10 hr [1]: 1.49 | 590 nm absorbance normalized to zero hour (substrate use), 11 hr [1]: 2.20 | Substrate use, 590 nm absorbance normalized to zero hour, 1 hr [1]: 1.24 | Substrate use, 590 nm absorbance normalized to zero hour, 5 hr [1]: 2.15 | Substrate use, 590 nm absorbance normalized to zero hour, 7 hr [1]: 1.53 | 590 nm absorbance normalized to zero hour (substrate use), 1 hr [3]: 1.26 | 590 nm absorbance normalized to zero hour (substrate use), 2 hr [3]: 1.40 | 590 nm absorbance normalized to zero hour (substrate use), 3 hr [3]: 1.48 | 590 nm absorbance normalized to zero hour (substrate use), 4 hr [3]: 1.54 | 590 nm absorbance normalized to zero hour (substrate use), 5 hr [3]: 1.64 | 590 nm absorbance normalized to zero hour (substrate use), 6 hr [3]: 1.67 | 590 nm absorbance normalized to zero hour (substrate use), 7 hr [3]: 1.71 | 590 nm absorbance normalized to zero hour (substrate use), 8 hr [3]: 1.74 | 590 nm absorbance normalized to zero hour (substrate use), 9 hr [3]: 1.81 | 590 nm absorbance normalized to zero hour (substrate use), 10 hr [3]: 1.74 | 590 nm absorbance normalized to zero hour (substrate use), 11 hr [3]: 1.81 | 590 nm absorbance normalized to zero hour (substrate use), 1 hr [4]: 1.26 | 590 nm absorbance normalized to zero hour (substrate use), 2 hr [4]: 1.40 | 590 nm absorbance normalized to zero hour (substrate use), 3 hr [4]: 1.48 | 590 nm absorbance normalized to zero hour (substrate use), 4 hr [4]: 1.54 | 590 nm absorbance normalized to zero hour (substrate use), 5 hr [4]: 1.64 | 590 nm absorbance normalized to zero hour (substrate use), 6 hr [4]: 1.67 | 590 nm absorbance normalized to zero hour (substrate use), 7 hr [4]: 1.71 | 590 nm absorbance normalized to zero hour (substrate use), 8 hr [4]: 1.74 | 590 nm absorbance normalized to zero hour (substrate use), 9 hr [4]: 1.81 | 590 nm absorbance normalized to zero hour (substrate use), 10 hr [4]: 1.74 | 590 nm absorbance normalized to zero hour (substrate use), 11 hr [4]: 1.81

CC(O)C(C)O (centres unmarked) [2,3-Butanediol]
590 nm absorbance normalized to zero hour (substrate use), 1 hr [1]: 1.23 | 590 nm absorbance normalized to zero hour (substrate use), 2 hr [1]: 1.54 | 590 nm absorbance normalized to zero hour (substrate use), 3 hr [1]: 1.61 | 590 nm absorbance normalized to zero hour (substrate use), 4 hr [1]: 1.58 | 590 nm absorbance normalized to zero hour (substrate use), 6 hr [1]: 0.83 | 590 nm absorbance normalized to zero hour (substrate use), 8 hr [1]: 1.93 | 590 nm absorbance normalized to zero hour (substrate use), 9 hr [1]: 2.09 | 590 nm absorbance normalized to zero hour (substrate use), 10 hr [1]: 2.19 | 590 nm absorbance normalized to zero hour (substrate use), 11 hr [1]: 2.33 | Substrate use, 590 nm absorbance normalized to zero hour, 1 hr [1]: 1.23 | Substrate use, 590 nm absorbance normalized to zero hour, 5 hr [1]: 1.83 | Substrate use, 590 nm absorbance normalized to zero hour, 7 hr [1]: 1.84 | 590 nm absorbance normalized to zero hour (substrate use), 1 hr [5]: 1.66 | 590 nm absorbance normalized to zero hour (substrate use), 2 hr [5]: 1.65 | 590 nm absorbance normalized to zero hour (substrate use), 3 hr [5]: 0.31 | 590 nm absorbance normalized to zero hour (substrate use), 4 hr [5]: 0.33 | 590 nm absorbance normalized to zero hour (substrate use), 5 hr [5]: 0.38 | 590 nm absorbance normalized to zero hour (substrate use), 6 hr [5]: 0.40 | 590 nm absorbance normalized to zero hour (substrate use), 7 hr [5]: 0.42 | 590 nm absorbance normalized to zero hour (substrate use), 8 hr [5]: 0.43 | 590 nm absorbance normalized to zero hour (substrate use), 9 hr [5]: 0.45 | 590 nm absorbance normalized to zero hour (substrate use), 10 hr [5]: 0.42 | 590 nm absorbance normalized to zero hour (substrate use), 11 hr [5]: 0.39 | 590 nm absorbance normalized to zero hour (substrate use), 1 hr [4]: 1.66 | 590 nm absorbance normalized to zero hour (substrate use), 2 hr [4]: 1.65 | 590 nm absorbance normalized to zero hour (substrate use), 3 hr [4]: 0.31 | 590 nm absorbance normalized to zero hour (substrate use), 4 hr [4]: 0.33 | 590 nm absorbance normalized to zero hour (substrate use), 5 hr [4]: 0.38 | 590 nm absorbance normalized to zero hour (substrate use), 6 hr [4]: 0.40 | 590 nm absorbance normalized to zero hour (substrate use), 7 hr [4]: 0.42 | 590 nm absorbance normalized to zero hour (substrate use), 8 hr [4]: 0.43 | 590 nm absorbance normalized to zero hour (substrate use), 9 hr [4]: 0.45 | 590 nm absorbance normalized to zero hour (substrate use), 10 hr [4]: 0.42 | 590 nm absorbance normalized to zero hour (substrate use), 11 hr [4]: 0.39
